Assay results as given in ChEMBL document CHEMBL6087464, “Design, Synthesis, and Biological Evaluation of 3,4-Dihydroisoquinolin-1(2H)-one Derivatives as Protein Arginine Methyltransferase 5 Inhibitors for the Treatment of Non-Hodgkin's Lymphoma” (J Med Chem, 2025).

Assays:
[1] = molecular target: PRMT5/MEP50 complex (Homo sapiens, UniProt O14744); experiment: Inhibition of recombinant N-terminal FLAG-tagged human full-length PRMT5/full length human MEP50 extracted from baculovirus expression system using [3H]-SAM as substrate preincubated for 15 mins followed by substrate addition and measured after 60 mins by multimode plate reader analysis
[2] = test system: Z-138; experiment: Antiproliferative activity against human Z138 cells measured after 7 days by CellTiter-Glo luminescence cell viability assay; format: functional, cell-based; conditions: Z-138, 168 h
[3] = Half-life in Sprague-Dawley rat at 10 mg/kg, po by LC-MS/MS analysis; format: ADME, organism-based; conditions: in vivo; for half-life: Sprague-Dawley
[4] = Tmax in Sprague-Dawley rat at 10 mg/kg, po by LC-MS/MS analysis; format: ADME, organism-based; conditions: in vivo
[5] = Cmax in Sprague-Dawley rat at 10 mg/kg, po by LC-MS/MS analysis; format: ADME, organism-based; conditions: in vivo
[6] = AUC (0 to t) in Sprague-Dawley rat at 10 mg/kg, po by LC-MS/MS analysis; format: ADME, organism-based; conditions: in vivo; for AUC(0-t): Sprague-Dawley
[7] = MRT (0 to t) in Sprague-Dawley rat at 10 mg/kg, po by LC-MS/MS analysis; format: ADME, organism-based; conditions: in vivo
[8] = Oral bioavailability in Sprague-Dawley rat at 10 mg/kg by LC-MS/MS analysis; format: ADME, organism-based; conditions: in vivo
[9] = Half-life in Sprague-Dawley rat at 2 mg/kg, iv by LC-MS/MS analysis; format: ADME, organism-based; conditions: in vivo
[10] = Cmax in Sprague-Dawley rat at 2 mg/kg, iv by LC-MS/MS analysis; format: ADME, organism-based; conditions: in vivo
[11] = AUC (0 to t) in Sprague-Dawley rat at 2 mg/kg, iv by LC-MS/MS analysis; format: ADME, organism-based; conditions: in vivo
[12] = MRT (0 to t) in Sprague-Dawley rat at 2 mg/kg, iv by LC-MS/MS analysis; format: ADME, organism-based; conditions: in vivo
[13] = Clearance in Sprague-Dawley rat at 2 mg/kg, iv by LC-MS/MS analysis; format: ADME, organism-based; conditions: in vivo
[14] = Volume of distribution in Sprague-Dawley rat at 2 mg/kg, iv by LC-MS/MS analysis; format: ADME, organism-based; conditions: in vivo
[15] = molecular target: Voltage-gated inwardly rectifying potassium channel KCNH2 (Homo sapiens, UniProt Q12809); experiment: Inhibition of human ERG; format: toxicity
[16] = molecular target: Protein arginine N-methyltransferase 3 (Homo sapiens, UniProt O60678); experiment: Inhibition of PRMT3 (unknown origin)
[17] = molecular target: T1, Histone-arginine methyltransferase CARM1 (Homo sapiens, UniProt Q86X55); experiment: Inhibition of PRMT4 (unknown origin)
T1 sequence (Q86X55 whole entry): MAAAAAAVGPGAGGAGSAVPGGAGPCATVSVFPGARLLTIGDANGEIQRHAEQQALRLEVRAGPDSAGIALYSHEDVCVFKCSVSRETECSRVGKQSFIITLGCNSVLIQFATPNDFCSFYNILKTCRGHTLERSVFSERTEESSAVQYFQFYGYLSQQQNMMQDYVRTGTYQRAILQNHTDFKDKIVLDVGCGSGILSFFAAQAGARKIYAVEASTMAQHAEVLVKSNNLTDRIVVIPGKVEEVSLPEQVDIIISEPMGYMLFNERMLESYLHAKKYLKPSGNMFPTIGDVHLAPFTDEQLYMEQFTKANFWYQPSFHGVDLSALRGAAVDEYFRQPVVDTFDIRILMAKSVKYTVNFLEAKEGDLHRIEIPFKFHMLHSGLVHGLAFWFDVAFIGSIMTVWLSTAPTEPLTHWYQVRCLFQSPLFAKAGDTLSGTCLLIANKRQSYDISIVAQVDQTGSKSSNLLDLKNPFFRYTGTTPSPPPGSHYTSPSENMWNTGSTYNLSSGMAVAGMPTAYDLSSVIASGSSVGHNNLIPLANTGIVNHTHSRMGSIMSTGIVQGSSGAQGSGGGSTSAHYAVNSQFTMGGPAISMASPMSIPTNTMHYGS

[18] = molecular target: Protein arginine N-methyltransferase 6 (Homo sapiens, UniProt Q96LA8); experiment: Inhibition of PRMT6 (unknown origin)
[19] = molecular target: T2, Protein arginine N-methyltransferase 7 (Homo sapiens, UniProt Q9NVM4); experiment: Inhibition of PRMT7 (unknown origin)
T2 sequence (Q9NVM4 whole entry): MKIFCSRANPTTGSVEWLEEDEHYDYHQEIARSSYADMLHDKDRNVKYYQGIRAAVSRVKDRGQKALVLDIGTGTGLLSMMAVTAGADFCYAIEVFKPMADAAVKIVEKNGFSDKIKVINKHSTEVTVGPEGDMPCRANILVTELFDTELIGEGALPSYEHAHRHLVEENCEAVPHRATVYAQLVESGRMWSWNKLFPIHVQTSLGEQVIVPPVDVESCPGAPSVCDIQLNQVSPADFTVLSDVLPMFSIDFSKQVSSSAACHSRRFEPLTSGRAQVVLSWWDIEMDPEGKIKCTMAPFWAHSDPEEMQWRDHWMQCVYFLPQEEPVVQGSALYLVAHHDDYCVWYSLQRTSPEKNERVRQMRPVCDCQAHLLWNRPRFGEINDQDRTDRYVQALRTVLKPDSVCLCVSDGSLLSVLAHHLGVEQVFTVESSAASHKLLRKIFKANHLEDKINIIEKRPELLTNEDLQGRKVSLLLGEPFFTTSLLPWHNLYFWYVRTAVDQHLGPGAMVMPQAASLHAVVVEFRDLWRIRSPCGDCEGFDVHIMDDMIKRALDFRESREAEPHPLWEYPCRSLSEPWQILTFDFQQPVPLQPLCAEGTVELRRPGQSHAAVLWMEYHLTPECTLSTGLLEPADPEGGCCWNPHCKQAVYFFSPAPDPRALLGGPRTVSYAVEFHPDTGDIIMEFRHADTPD

[20] = molecular target: Protein arginine N-methyltransferase 8 (Homo sapiens, UniProt Q9NR22); experiment: Inhibition of PRMT8 (unknown origin)
Chain of Protein arginine N-methyltransferase 8 (Q9NR22 whole entry): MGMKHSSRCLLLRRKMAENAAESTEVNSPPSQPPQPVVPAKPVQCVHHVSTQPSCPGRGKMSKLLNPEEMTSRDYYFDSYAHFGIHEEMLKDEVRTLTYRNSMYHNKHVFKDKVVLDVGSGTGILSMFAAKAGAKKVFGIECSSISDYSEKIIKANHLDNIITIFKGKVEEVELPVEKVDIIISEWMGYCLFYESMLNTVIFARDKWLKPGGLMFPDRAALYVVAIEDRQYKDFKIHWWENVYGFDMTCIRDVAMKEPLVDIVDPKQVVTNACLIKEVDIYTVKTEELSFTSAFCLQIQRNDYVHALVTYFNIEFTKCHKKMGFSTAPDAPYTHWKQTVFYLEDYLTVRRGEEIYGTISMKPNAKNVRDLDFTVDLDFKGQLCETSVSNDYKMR

Chain of PRMT5/MEP50 complex (O14744 whole entry): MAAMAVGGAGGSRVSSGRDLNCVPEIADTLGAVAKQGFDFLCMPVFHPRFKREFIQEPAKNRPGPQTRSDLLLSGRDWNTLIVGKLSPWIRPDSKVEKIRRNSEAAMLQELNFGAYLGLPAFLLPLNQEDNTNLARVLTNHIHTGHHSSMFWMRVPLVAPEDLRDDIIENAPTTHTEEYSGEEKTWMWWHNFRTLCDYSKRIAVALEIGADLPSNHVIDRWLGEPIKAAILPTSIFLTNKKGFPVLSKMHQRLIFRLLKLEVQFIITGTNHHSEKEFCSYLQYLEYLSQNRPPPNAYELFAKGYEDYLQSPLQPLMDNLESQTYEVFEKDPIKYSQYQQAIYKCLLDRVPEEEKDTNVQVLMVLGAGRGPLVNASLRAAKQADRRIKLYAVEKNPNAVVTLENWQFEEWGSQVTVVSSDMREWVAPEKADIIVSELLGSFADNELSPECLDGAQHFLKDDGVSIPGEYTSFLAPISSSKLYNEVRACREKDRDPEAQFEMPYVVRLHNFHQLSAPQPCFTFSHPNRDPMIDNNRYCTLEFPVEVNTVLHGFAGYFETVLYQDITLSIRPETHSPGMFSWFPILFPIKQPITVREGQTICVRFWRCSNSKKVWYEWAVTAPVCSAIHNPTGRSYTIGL
Chain of PRMT5/MEP50 complex (Q9BQA1 whole entry, further chain): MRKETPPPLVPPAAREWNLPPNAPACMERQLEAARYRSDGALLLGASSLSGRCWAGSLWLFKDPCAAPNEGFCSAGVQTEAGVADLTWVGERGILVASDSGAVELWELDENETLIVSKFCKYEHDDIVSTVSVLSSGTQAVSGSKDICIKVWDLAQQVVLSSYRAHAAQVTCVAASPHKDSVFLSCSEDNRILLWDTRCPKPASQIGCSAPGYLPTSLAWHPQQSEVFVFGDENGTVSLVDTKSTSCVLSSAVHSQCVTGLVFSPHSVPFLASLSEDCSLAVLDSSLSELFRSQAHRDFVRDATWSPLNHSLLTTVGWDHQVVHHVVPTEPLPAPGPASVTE
Chain of Voltage-gated inwardly rectifying potassium channel KCNH2 (Q12809 whole entry): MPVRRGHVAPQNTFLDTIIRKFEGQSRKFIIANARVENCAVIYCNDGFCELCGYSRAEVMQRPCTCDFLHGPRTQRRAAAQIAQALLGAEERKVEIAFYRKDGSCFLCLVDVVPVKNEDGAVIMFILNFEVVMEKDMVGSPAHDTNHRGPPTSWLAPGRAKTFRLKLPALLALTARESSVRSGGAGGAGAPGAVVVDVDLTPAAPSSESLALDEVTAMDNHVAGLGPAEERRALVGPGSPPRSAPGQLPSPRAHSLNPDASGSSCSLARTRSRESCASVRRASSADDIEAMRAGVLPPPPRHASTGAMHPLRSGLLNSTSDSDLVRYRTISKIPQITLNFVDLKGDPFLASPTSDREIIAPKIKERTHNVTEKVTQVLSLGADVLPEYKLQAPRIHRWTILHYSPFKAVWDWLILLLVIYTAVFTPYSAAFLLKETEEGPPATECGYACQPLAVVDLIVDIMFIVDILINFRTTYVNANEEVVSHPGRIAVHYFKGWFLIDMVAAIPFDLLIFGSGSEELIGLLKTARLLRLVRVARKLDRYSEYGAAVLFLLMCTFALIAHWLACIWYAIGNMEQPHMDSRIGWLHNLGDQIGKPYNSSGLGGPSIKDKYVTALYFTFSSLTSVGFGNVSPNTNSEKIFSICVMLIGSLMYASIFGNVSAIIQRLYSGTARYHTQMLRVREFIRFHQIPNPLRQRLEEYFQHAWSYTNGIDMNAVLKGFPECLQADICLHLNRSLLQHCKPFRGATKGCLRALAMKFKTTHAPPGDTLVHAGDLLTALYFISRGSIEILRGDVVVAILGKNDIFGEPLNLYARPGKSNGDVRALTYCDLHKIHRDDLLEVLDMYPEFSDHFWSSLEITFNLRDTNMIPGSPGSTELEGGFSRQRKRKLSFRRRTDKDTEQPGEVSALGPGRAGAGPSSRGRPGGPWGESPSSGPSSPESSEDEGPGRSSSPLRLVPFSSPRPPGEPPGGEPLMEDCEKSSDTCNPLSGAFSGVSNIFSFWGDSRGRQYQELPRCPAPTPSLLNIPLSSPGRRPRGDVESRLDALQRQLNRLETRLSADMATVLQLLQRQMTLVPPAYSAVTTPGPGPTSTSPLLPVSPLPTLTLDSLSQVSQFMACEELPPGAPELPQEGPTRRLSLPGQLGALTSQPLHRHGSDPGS
Chain of Protein arginine N-methyltransferase 6 (Q96LA8 whole entry): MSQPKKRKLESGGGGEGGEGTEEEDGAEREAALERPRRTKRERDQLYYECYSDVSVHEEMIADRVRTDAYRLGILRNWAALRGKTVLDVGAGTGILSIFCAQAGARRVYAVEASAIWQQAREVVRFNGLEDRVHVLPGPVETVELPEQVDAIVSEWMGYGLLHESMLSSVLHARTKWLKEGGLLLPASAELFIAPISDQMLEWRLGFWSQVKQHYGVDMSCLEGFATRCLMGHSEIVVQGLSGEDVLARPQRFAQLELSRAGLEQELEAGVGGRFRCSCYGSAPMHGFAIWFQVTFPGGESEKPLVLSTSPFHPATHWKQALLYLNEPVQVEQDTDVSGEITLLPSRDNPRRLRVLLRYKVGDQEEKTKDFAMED
Chain of Protein arginine N-methyltransferase 3 (O60678 whole entry): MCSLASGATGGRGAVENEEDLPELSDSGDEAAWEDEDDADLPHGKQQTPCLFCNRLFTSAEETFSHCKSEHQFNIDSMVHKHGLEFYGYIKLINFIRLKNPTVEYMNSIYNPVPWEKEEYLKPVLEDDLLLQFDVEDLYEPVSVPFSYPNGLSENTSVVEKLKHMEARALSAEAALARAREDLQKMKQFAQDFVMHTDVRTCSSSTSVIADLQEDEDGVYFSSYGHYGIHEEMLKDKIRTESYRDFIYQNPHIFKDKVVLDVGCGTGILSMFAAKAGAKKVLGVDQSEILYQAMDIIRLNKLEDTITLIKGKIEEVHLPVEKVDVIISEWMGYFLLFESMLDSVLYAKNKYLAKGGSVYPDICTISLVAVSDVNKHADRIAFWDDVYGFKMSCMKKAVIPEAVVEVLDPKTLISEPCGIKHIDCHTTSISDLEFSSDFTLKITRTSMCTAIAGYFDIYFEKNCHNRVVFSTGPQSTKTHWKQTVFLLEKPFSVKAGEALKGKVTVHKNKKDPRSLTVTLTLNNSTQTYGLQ

O=C1c2cc(NS(=O)(=O)c3ccccc3)ccc2C2(CC2)CN1C[C@H](O)CN1CCc2ccccc2C1
IC50 [1]: 0.249 µM

CC(=O)N1CCC(Nc2ccc3c(n2)C(=O)N(C[C@H](O)CN2CCc4ccccc4C2)CC32CC2)CC1
IC50 [1]: 0.0869 µM
IC50 [2]: 0.279 µM

CC(=O)N1CCC(Nc2ccc3c(c2)C(=O)N(C[C@H](O)CN2CCc4ccccc4C2)CC32CC2)CC1
IC50 [1]: 0.0183 µM
IC50 [2]: 0.00433 µM
half-life [3]: 54 min
Tmax ([4]; Sprague-Dawley, read-out: Tmax): 18 min
Cmax ([5]; Sprague-Dawley, read-out: Cmax): 1150 ng/mL
AUC(0-t) [6]: 1460 ng·h/mL
MRT last [7]: 60 min
bioavailability [8]: 63.1%
half-life [9]: 24 min
Cmax [10]: 1560 ng/mL
AUC(0-t) [11]: 464 ng·h/mL
MRT last [12]: 18 min
clearance [13]: 71.7 mL/min/kg
Vd [14]: 2.6 L/kg

CC(=O)N1CCC(C(=O)Nc2ccc3c(c2)C(=O)N(C[C@H](O)CN2CCc4ccccc4C2)CC32CC2)CC1
IC50 [1]: 0.00861 µM
IC50 [2]: 0.103 µM

CC(=O)N1CCC(Nc2ccc3c(c2)CC(=O)N3C[C@H](O)CN2CCc3ccccc3C2)CC1
IC50 [1]: > 10 µM

O=C1c2cc(NC3CCNCC3)ccc2C2(CC2)CN1C[C@H](O)CN1CCc2ccccc2C1
IC50 [1]: 0.00901 µM
IC50 [2]: 0.588 µM

CC(=O)N1CCC(Nc2cc3c(cn2)C2(CC2)CN(C[C@H](O)CN2CCc4ccccc4C2)C3=O)CC1
IC50 [2]: 0.00307 µM
half-life [3]: 24 min
Tmax ([4]; Sprague-Dawley, read-out: Tmax): 24 min
Cmax ([5]; Sprague-Dawley, read-out: Cmax): 145 ng/mL
AUC(0-t) [6]: 356 ng·h/mL
MRT last [7]: 12 min
bioavailability [8]: 16.4%
half-life [9]: 24 min
Cmax [10]: 678 ng/mL
AUC(0-t) [11]: 435 ng·h/mL
MRT last [12]: 54 min
clearance [13]: 38.3 mL/min/kg
Vd [14]: 3 L/kg

CC(=O)N1CCC(Nc2ccc3c(c2)C(=O)N(C[C@H](O)CN2CCc4ccccc4C2)CC32CCCC2)CC1
IC50 [1]: 0.0226 µM
IC50 [2]: 0.0103 µM
t1/2 ([3]; po, 10 mg/kg): 18 min
Tmax ([4]; po, 10 mg/kg): 6 min
Cmax ([5]; po, 10 mg/kg): 149.5 ng/mL
AUCt ([6]; po, 10 mg/kg): 794.2 ng·h/mL
MRT last [7]: 6 min
bioavailability [8]: 24.2%
half-life [9]: 78 min
Cmax [10]: 943 ng/mL
AUC(0-t) [11]: 656 ng·h/mL
MRT last [12]: 60 min
clearance [13]: 25 mL/min/kg
Vd [14]: 2.8 L/kg
IC50 [15]: 0.35 µM

O=C(Nc1ccc2c(c1)C(=O)N(C[C@H](O)CN1CCc3ccccc3C1)CC21CC1)C1CCOCC1
IC50 [1]: 0.0167 µM
IC50 [2]: 0.282 µM

CC(=O)N1CCC(C(=O)N2CCC3(CC2)C(=O)N(C[C@H](O)CN2CCc4ccccc4C2)c2ccccc23)CC1
IC50 [1]: 3.06 µM

O=C1c2cc(NC3CCN(C(=O)C4CC4)CC3)ccc2C2(CCCC2)CN1C[C@H](O)CN1CCc2ccccc2C1
IC50 [1]: 0.0455 µM
IC50 [2]: 0.0205 µM

C[S+](CC[C@H](N)C(=O)[O-])C[C@H]1O[C@@H](n2cnc3c(N)ncnc32)[C@H](O)[C@@H]1O (some centres undefined) [ADEMETIONINE]
IC50 [1]: 0.793 µM
IC50 [16]: 5.17 µM
IC50 [17]: 0.042 µM
IC50 [18]: 1.26 µM
IC50 [19]: 0.491 µM
IC50 [20]: 0.759 µM

CC(=O)N1CCC(C(=O)N2CCC3(CC2)CCN(C[C@H](O)CN2CCc4ccccc4C2)C3=O)CC1
IC50 [1]: > 10 µM

CC(=O)N1CCC(Nc2ccc3c(c2)C(=O)N(C[C@H](O)CN2CCc4ccccc4C2)CC32CCOC2)CC1 (some centres undefined)
IC50 [1]: 0.116 µM

O=C(Nc1ccc2c(c1)C(=O)N(C[C@H](O)CN1CCc3ccccc3C1)CC21CC1)c1ccccc1
IC50 [1]: 0.0106 µM
IC50 [2]: 0.401 µM

CC(=O)N1CCC(C(=O)Nc2ccc3c(c2)C(=O)N(C[C@H](O)CN2CCc4ccccc4C2)CC32CCC2)CC1
IC50 [1]: 0.00395 µM
IC50 [2]: 0.0918 µM

CC(=O)N1CCC(Nc2ccc3c(c2)C(=O)N(C[C@H](O)CN2CCc4ccccc4C2)CC32CCC2)CC1
IC50 [1]: 0.0264 µM
IC50 [2]: 0.00389 µM
half-life [3]: 210 min
Tmax ([4]; Sprague-Dawley, read-out: Tmax): 18 min
Cmax ([5]; Sprague-Dawley, read-out: Cmax): 840 ng/mL
AUC(0-t) [6]: 1600 ng·h/mL
MRT last [7]: 132 min
bioavailability [8]: 23.4%
half-life [9]: 48 min
Cmax [10]: 1770 ng/mL
AUC(0-t) [11]: 1370 ng·h/mL
MRT last [12]: 48 min
clearance [13]: 25 mL/min/kg
Vd [14]: 1.6 L/kg
IC50 [15]: 0.46 µM

Cn1cc(C(=O)Nc2ccc3c(c2)C(=O)N(C[C@H](O)CN2CCc4ccccc4C2)CC32CCC2)cn1
IC50 [1]: 0.0161 µM
IC50 [2]: 0.318 µM

Cn1cc(C(=O)Nc2ccc3c(c2)C(=O)N(C[C@H](O)CN2CCc4ccccc4C2)CC32CC2)cn1
IC50 [1]: 0.00989 µM
IC50 [2]: 0.292 µM

CC(=O)N1CCC(Nc2ccc3c(c2)C(=O)N(C[C@H](O)CN2CCc4ccccc4C2)CC3)CC1
IC50 [1]: 0.0375 µM
IC50 [2]: 0.0143 µM

CC(=O)N1CCC(Nc2ccc3c(c2)N(C[C@H](O)CN2CCc4ccccc4C2)C(=O)C3)CC1
IC50 [1]: > 10 µM
